According to publication PMC11249646, “Small-Molecule Disruptors of the Interaction between Calcium- and Integrin-Binding Protein 1 and Integrin αIIbβ3 as Novel Antiplatelet Agents” (ACS Pharmacology & Translational Science, 2024):
Where two headings read alike, the source gives them in different places.

Tests used:
Type in all cases: binding
[1] = target: T1, GST-CIB1 : F-scrambled peptide (Homo sapiens, UniProt Q99828); assay: FP scrambled-peptide counter screen, 1536-well format; details: scrambled-peptide counterscreen; for COUNTERSCREEN Confirm?: YES/NO call; for COUNTERSCREEN Curve Class: qHTS curve class; for IC50: read-out: COUNTERSCREEN IC50
T1 construct: made in house; host or cells: BL-21 plus RIL cells (E. coli)
T1 sequence (Q99828 1-191): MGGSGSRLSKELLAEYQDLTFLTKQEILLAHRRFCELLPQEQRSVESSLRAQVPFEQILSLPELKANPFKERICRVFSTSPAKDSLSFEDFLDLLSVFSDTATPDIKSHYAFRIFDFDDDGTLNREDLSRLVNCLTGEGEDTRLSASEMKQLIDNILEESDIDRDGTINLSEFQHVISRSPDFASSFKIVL

[2] = target: T2, CIB1 and αIIb interaction (CIB1-GST : F-αIIb peptide) (Homo sapiens, UniProt Q99828); assay: FP assay, 1536-well qHTS format (primary and confirmatory screen); details: for CONFIRMATORY SCREEN Confirm?: YES/NO call; for CONFIRMATORY SCREEN Curve Class: qHTS curve class; for CONFIRMATORY SCREEN Curve Class / Curve Class: negative sign = inhibitory curve; for CONFIRMATORY SCREEN Efficacy (%) / Efficacy (%): negative = inhibition
T2 construct: made in house; host or cells: BL-21 plus RIL cells (E. coli)
T2 sequence (Q99828 1-191): T1 sequence (Q99828 1-191)

[3] = target: T3, CIB1 and αIIb interaction (GST-CIB1 : F-αIIb peptide) (Homo sapiens, UniProt Q99828); assay: FP assay, 384-well format (screen); design: 384-well SCREEN Efficacy (%): concentration or dose not given beside the values; details: F-αIIb peptide; for IC50: read-out: 384-well SCREEN IC50; for 384-well SCREEN Confirm?: YES/NO
T3 construct: made in house; host or cells: BL-21 plus RIL cells (E. coli)
T3 sequence (Q99828 1-191): T1 sequence (Q99828 1-191)

[4] = target: T1, GST-CIB1 : F-scrambled peptide; assay: FP scrambled-peptide counter screen, 384-well format; details: F-scrambled peptide; for IC50: read-out: 384-well COUNTERSCREEN IC50; for 384-well COUNTERSCREEN Confirm?: *: Curve in opposite direction
[5] = confirmatory screen, read-out: CONFIRMATORY SCREEN IC50
[6] = qHTS primary screen hits, Table S2
[7] = qHTS primary screen hits, Table S2, read-out: IC50
[8] = qHTS primary screen hits, Table S2, several classes where COUNT > 1

Cc1cc(Nc2c(Nc3nnc(-c4ccncc4)s3)c(=O)c2=O)ccc1Cl.O=C(O)C(F)(F)F [NCGC00241510-01]
COUNTERSCREEN Efficacy (%) [1]: -33%
COUNTERSCREEN Confirm? [1]: YES
COUNTERSCREEN Curve Class [1]: -2.2
IC50 [1]: 44.7 µM
CONFIRMATORY SCREEN Confirm? ([2]; confirmatory screen): YES
CONFIRMATORY SCREEN Curve Class ([2]; confirmatory screen): -1.4
CONFIRMATORY SCREEN Efficacy (%) ([2]; confirmatory screen): -51%
IC50 [2, 5]: 11.2 µM
Efficacy (%) [2, 6]: -35%
Curve Class [2, 6]: -2.4
IC50 [2, 7]: 39.8 µM
384-well SCREEN Efficacy (%) [3]: 23%
IC50 [3]: > 120 µM
384-well COUNTERSCREEN Efficacy (%) [4]: 64%
IC50 [4]: > 120 µM

Cc1cc(NS(=O)(=O)c2ccc(NCCc3ccc(Cl)c(Cl)c3)cc2)no1.O=C(O)C(F)(F)F [NCGC00244100-02]
COUNTERSCREEN Efficacy (%) [1]: 132%
COUNTERSCREEN Confirm? [1]: YES
COUNTERSCREEN Curve Class [1]: 3
IC50 [1]: 39.8 µM
CONFIRMATORY SCREEN Confirm? ([2]; confirmatory screen): YES
CONFIRMATORY SCREEN Curve Class ([2]; confirmatory screen): -2.4
CONFIRMATORY SCREEN Efficacy (%) ([2]; confirmatory screen): -36%
Efficacy (%) ([2]; qHTS FP screen hits, Table S2): -22%
IC50 ([2]; qHTS FP screen hits, Table S2, read-out: IC50): 22.4 µM
384-well SCREEN Efficacy (%) [3]: 42%
384-well SCREEN Confirm? [3]: YES
IC50 [3]: 22.4 µM
384-well COUNTERSCREEN Efficacy (%) [4]: 23%
384-well COUNTERSCREEN Confirm? [4]: YES
IC50 [4]: > 120 µM

Cc1ccc(Cl)cc1NC(=O)c1nc[nH]c1C(=O)Nc1nc2ccccc2[nH]1 [NCGC00244259-01]
COUNTERSCREEN Efficacy (%) [1]: -15%
COUNTERSCREEN Confirm? [1]: YES
COUNTERSCREEN Curve Class [1]: 4
CONFIRMATORY SCREEN Confirm? ([2]; confirmatory screen): YES
CONFIRMATORY SCREEN Curve Class ([2]; confirmatory screen): -1.2
CONFIRMATORY SCREEN Efficacy (%) ([2]; confirmatory screen): -28%
IC50 [2, 5]: 7.9 µM
Efficacy (%) [2, 6]: -42%
Curve Class [2, 8]: -2.2
IC50 [2, 7]: 20 µM
384-well SCREEN Efficacy (%) [3]: 48%
384-well SCREEN Confirm? [3]: YES
IC50 [3]: 11.2 µM
384-well COUNTERSCREEN Efficacy (%) [4]: 48%
IC50 [4]: 15.8 µM

O=C(Cc1ccc(Cl)c(Cl)c1)Nc1ccc(S(=O)(=O)Nc2ccon2)cc1.O=C(O)C(F)(F)F [NCGC00244858-03]
COUNTERSCREEN Efficacy (%) [1]: -10%
COUNTERSCREEN Confirm? [1]: YES
COUNTERSCREEN Curve Class [1]: 4
CONFIRMATORY SCREEN Confirm? ([2]; confirmatory screen): YES
CONFIRMATORY SCREEN Curve Class ([2]; confirmatory screen): -1.4
CONFIRMATORY SCREEN Efficacy (%) ([2]; confirmatory screen): -39%
IC50 [2, 5]: 22.4 µM
Efficacy (%) [2, 6]: -27%
Curve Class [2, 6]: -1.4
IC50 [2, 7]: 3.2 µM
384-well SCREEN Efficacy (%) [3]: 35%
384-well SCREEN Confirm? [3]: YES
IC50 [3]: 8.9 µM
384-well COUNTERSCREEN Efficacy (%) [4]: 43%
IC50 [4]: 25.1 µM

CCOC(=O)c1nnc(NS(=O)(=O)c2ccc(NC(=O)Cc3ccc(Cl)c(Cl)c3)cc2)s1.O=C(O)C(F)(F)F [NCGC00248354-01]
COUNTERSCREEN Efficacy (%) [1]: 66%
COUNTERSCREEN Confirm? [1]: YES
IC50 [1]: 44.7 µM
CONFIRMATORY SCREEN Confirm? ([2]; confirmatory screen): YES
CONFIRMATORY SCREEN Curve Class ([2]; confirmatory screen): -1.2
CONFIRMATORY SCREEN Efficacy (%) ([2]; confirmatory screen): -47%
IC50 [2, 5]: 15.8 µM
384-well SCREEN Efficacy (%) [3]: 31%
384-well SCREEN Confirm? [3]: YES
IC50 [3]: 28.2 µM
384-well COUNTERSCREEN Efficacy (%) [4]: 20%
384-well COUNTERSCREEN Confirm? [4]: YES
IC50 [4]: > 120 µM

O=C(Cc1ccc(Cl)c(Cl)c1)Nc1ccc(S(=O)(=O)Nc2nnc(-c3ccccn3)s2)cc1.O=C(O)C(F)(F)F [NCGC00248355-01]
COUNTERSCREEN Efficacy (%) [1]: -73%
COUNTERSCREEN Confirm? [1]: YES
COUNTERSCREEN Curve Class [1]: -2.4
IC50 [1]: 79.4 µM
CONFIRMATORY SCREEN Confirm? ([2]; confirmatory screen): YES
CONFIRMATORY SCREEN Curve Class ([2]; confirmatory screen): -2.1
CONFIRMATORY SCREEN Efficacy (%) ([2]; confirmatory screen): -132%
IC50 [2, 5]: 35.5 µM
Efficacy (%) [2, 6]: -50%
Curve Class [2, 8]: -1.2
IC50 [2, 7]: 25.1 µM
384-well SCREEN Efficacy (%) [3]: 44%
384-well SCREEN Confirm? [3]: YES
IC50 [3]: 11.2 µM
384-well COUNTERSCREEN Efficacy (%) [4]: 38%
384-well COUNTERSCREEN Confirm? [4]: YES
IC50 [4]: > 120 µM
